Tests used:
[1] = in vivo, po
Description: (§1) Compounds were initially synthesized and tested for potency (IC50) in a fluorogenic NS3/4 protease assay and cell-based HCV replicon system as described in Example 8 above. […] These leads were then further optimized for drug-like physical properties and administered in oral doses in Rattus sp. to assess liver, heart and plasma concentrations.
Compounds were tested for liver clearance over time following a single 3 mg/kg oral dose in rats.
as §1, with “described” for “described in Example 8”

[2] = test system: panel of other serine proteases; experiment: Selectivity against a panel of other serine proteases; type: biochemical
hERG channel = hERG channel (Homo sapiens, UniProt Q12809); experiment: Inhibition of hERG channel activity; conditions: highest concentrations tested (10 μM)
Chain of hERG channel (Q12809 whole entry): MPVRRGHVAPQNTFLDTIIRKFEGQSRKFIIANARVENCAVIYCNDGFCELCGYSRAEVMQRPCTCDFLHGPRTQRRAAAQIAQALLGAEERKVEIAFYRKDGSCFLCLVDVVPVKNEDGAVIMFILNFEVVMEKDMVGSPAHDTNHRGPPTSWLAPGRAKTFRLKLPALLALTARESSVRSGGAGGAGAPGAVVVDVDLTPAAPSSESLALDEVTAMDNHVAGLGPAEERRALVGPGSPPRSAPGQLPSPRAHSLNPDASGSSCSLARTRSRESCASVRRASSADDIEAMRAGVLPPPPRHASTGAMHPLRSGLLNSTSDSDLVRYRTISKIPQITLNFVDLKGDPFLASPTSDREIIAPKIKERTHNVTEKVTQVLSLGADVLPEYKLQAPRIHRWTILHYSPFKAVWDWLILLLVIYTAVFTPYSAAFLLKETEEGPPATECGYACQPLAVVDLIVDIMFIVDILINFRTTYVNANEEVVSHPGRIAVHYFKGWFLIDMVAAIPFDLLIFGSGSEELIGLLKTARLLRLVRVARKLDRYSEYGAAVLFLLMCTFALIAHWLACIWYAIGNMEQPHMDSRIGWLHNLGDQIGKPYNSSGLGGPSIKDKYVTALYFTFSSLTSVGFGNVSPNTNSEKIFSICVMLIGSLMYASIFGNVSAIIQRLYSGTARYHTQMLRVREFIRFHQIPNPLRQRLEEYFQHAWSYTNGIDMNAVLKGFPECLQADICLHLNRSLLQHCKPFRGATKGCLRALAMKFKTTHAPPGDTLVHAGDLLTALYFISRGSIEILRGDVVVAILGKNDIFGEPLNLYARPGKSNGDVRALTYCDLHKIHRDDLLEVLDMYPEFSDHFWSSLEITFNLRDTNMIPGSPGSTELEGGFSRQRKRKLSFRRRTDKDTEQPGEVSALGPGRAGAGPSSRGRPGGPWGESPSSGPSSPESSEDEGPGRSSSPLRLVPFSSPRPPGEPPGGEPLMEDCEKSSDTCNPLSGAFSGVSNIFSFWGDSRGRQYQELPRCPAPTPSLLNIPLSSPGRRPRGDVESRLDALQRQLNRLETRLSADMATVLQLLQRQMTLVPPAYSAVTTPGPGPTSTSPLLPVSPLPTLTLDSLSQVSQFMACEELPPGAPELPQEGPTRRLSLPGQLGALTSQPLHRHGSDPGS

[3] = Toxicological assessment in rats, up to 30 mg/kg orally BID for seven days; conditions: Rattus sp.
[4] = Rat hepatocyte incubation assay (stability in vitro); type: in vitro ADME; conditions: rat hepatocytes
Cytochrome P450 isoforms = experiment: Inhibition of Cytochrome P450 isoforms; type: in vitro ADME; conditions: highest concentrations tested (10 μM)
[5] = Dog hepatocyte incubation assay (stability in vitro); type: in vitro ADME; conditions: dog hepatocytes
[6] = Human hepatocyte incubation assay (stability in vitro); type: in vitro ADME; conditions: human hepatocytes
[7] = test system: HCV sub-genomic replicon, GS4.3; experiment: Quantitation by ELISA of NPTII in the HCV sub-genomic replicon, GS4.3, Section B; type: cell-based; conditions: Hepatitis C virus; read-out: replicon EC50 value
Summary of the method: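 GS4.3 cells (HuH-7 carrying HCV 1377/NS3-3′ replicon) were treated 72 h at 37 °C with inhibitors in 3-fold dilutions, 1% DMSO, no G418. Lysate NPTII was measured by ELISA (TMB, 450 nm). Signal as % of DMSO control; EC50 from 4-parameter fit.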

[8] = from 1R-{[1-(2S-tert-Butoxycarbonylamino-non-8-enoyl)-4R-hydroxy-pyrrolidine-2S-carbonyl]-amino}-2S-vinyl-cyclopropanecarboxylic acid ethyl ester; rcm bond; 15-membered ring; Hoveyda catalyst (0.25 equiv); DCE; 10.0 mM; 50.0 °C
[9] = from C=CCCCCC[C@H](NC(=O)OC(C)(C)C)C(=O)N1C[C@H](O)C[C@H]1C(=O)N[C@]1(C(=O)OCC)C[C@H]1C=C; rcm bond; Hoveyda catalyst; DCE; 10.0 mM; 50.0 °C; 16.0 h

| SMILES | heart levels relative to liver concentrations in the same animals [1] | plasma levels relative to liver concentrations in the same animals [1] | selectivity against a panel of other serine proteases [2] | inhibition of hERG channel activity (hERG channel) | safety margin above the presumptive efficacious dose (3 mg/kg) ([3]; 30 mg/kg BID for seven days vs 3 mg/kg) [fold] | mortality, change in weight, abnormalities in clinical chemistries ([3]; 30 mg/kg orally BID for 7 days) | toxicity ([3]; dosed for seven days at 30 mg/kg BID) | stability in vitro in rat hepatocyte incubation assay [4] | inhibition of Cytochrome P450 isoforms (Cytochrome P450 isoforms) | stability in vitro in dog hepatocyte incubation assay [5] | stability in vitro in human hepatocyte incubation assay [6] | EC50 [7] [nM] | ring closure, isolated yield [8] [%] | ring closure, yield of all isomers [9] [%] |
| --- | --- | --- | --- | --- | --- | --- | --- | --- | --- | --- | --- | --- | --- | --- |
| CC(C)(C)OC(=O)N[C@H]1CCCCC/C=C\[C@@H]2C[C@@]2(C(=O)NS(=O)(=O)C2CC2)NC(=O)[C@@H]2C[C@@H](OC(=O)N3Cc4cccc(F)c4C3)CN2C1=O [AR334191] | up to two orders of magnitude lower | up to two orders of magnitude lower | high degree of selectivity | no significant inhibition | ≥ 10 | no mortality, change in weight, or abnormalities in clinical chemistries were observed | did not display toxicity | exhibited stability | no significant inhibition | exhibited stability | exhibited stability | ~2 | – | – |
| CC(C)(C)OC(=O)N[C@H]1CCCCC/C=C\[C@@H]2C[C@@]2(C(=O)NS(=O)(=O)C2CC2)NC(=O)[C@@H]2C[C@@H](OC(=O)N3CCc4ccccc4C3)CN2C1=O [AR261408] | – | – | high degree of selectivity | no significant inhibition | – | – | – | exhibited stability | no significant inhibition | exhibited stability | exhibited stability | ~2 | – | – |
| CC(C)(C)OC(=O)N[C@H]1CCCCC/C=C\[C@@H]2C[C@@]2(C(=O)NS(=O)(=O)C2CC2)NC(=O)[C@@H]2C[C@@H](OC(=O)N3Cc4ccccc4C3)CN2C1=O [AR294381] | – | – | high degree of selectivity | no significant inhibition | – | – | – | exhibited stability | no significant inhibition | exhibited stability | exhibited stability | ~2 | – | – |
| CCOC(=O)[C@@]12C[C@H]1C=CCCCCC[C@H](NC(=O)OC(C)(C)C)C(=O)N1C[C@H](O)C[C@H]1C(=O)N2 | – | – | – | – | – | – | – | – | – | – | – | – | 52 | 26 |

Source: patent US7491794B2, “Macrocyclic compounds as inhibitors of viral replication” (Intermune, Inc., priority 2003, dated 2009)
